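All cell lines were grown in 96-well plates and treated with compound for 48 hours. Here, GI50 denotes the concentration required for 50% inhibition of growth. TGI: total growth inhibition.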
Key:
Test in all cases: growth of human tumour cells (NCI), 48 h
NCI-H522 lung = tested on: NCI-H522 lung
U251 CNS = tested on: U251 CNS
SF-268 CNS = tested on: SF-268 CNS
LOX IMVI melanoma = tested on: LOX IMVI melanoma
MALME-3M melanoma = tested on: MALME-3M melanoma
OVCAR-8 ovarian = tested on: OVCAR-8 ovarian
UACC-62 melanoma = tested on: UACC-62 melanoma
TK-10 renal = tested on: TK-10 renal
SK-OV-3 ovarian = tested on: SK-OV-3 ovarian
HCT-15 colon = tested on: HCT-15 colon

SMILES | TGI (NCI-H522 lung) [µM] | TGI (U251 CNS) [µM] | TGI (SF-268 CNS) [µM] | TGI (LOX IMVI melanoma) [µM] | TGI (MALME-3M melanoma) [µM] | TGI (OVCAR-8 ovarian) [µM] | TGI (UACC-62 melanoma) [µM] | TGI (TK-10 renal) [µM] | TGI (SK-OV-3 ovarian) [µM] | TGI (HCT-15 colon) [µM] | GI50 (NCI-H522 lung) [µM] | GI50 (U251 CNS) [µM] | GI50 (SF-268 CNS) [µM] | GI50 (LOX IMVI melanoma) [µM] | GI50 (MALME-3M melanoma) [µM] | GI50 (OVCAR-8 ovarian) [µM] | GI50 (UACC-62 melanoma) [µM] | GI50 (TK-10 renal) [µM] | GI50 (SK-OV-3 ovarian) [µM] | GI50 (HCT-15 colon) [µM]
O=C(O)CNS(=O)(=O)c1ccc(NC(=O)c2cccc([N+](=O)[O-])c2)cc1 | > 100 | > 100 | > 100 | > 100 | > 100 | > 100 | > 100 | > 100 | > 100 | > 100 | – | – | – | – | – | – | – | – | – | –
CC(C)=CCC[C@](C)(O)[C@H]1CC[C@]2(C)[C@@H]1CC[C@@H]1[C@@]3(C)CC[C@H](OC(=O)CCC(=O)O)C(C)(C)[C@@H]3CC[C@]12C | > 100 | > 100 | > 100 | 30.7 | 38.6 | > 100 | 32.5 | > 100 | > 100 | 48.6 | 26.2 | 28.1 | 29.9 | 16.6 | 16.8 | 35.5 | 15 | 87.8 | 47.6 | 19.5
OCC(O)C(OC1OC(CO)C(O)C(O)C1O)c1nn(-c2ccc(F)cc2)c2nc3cc(Cl)c(Cl)cc3cc12 (stereo not given) | > 100 | > 100 | > 100 | > 100 | > 100 | > 100 | > 100 | > 100 | > 100 | > 100 | – | – | – | – | – | – | – | – | – | –
O=C1C=Cc2noc3cccc1c23 | 3.04 | 26.4 | 12.4 | 9.51 | 25.7 | 8.13 | 13.4 | 32.3 | 32.1 | 10.8 | – | – | – | – | – | – | – | – | – | –
C1CCN2CC34CC(CC5CCCN(C6CCCC3N6)C54)C2C1 (stereo not given) | > 100 | > 100 | > 100 | > 100 | > 100 | > 100 | > 100 | > 100 | > 100 | > 100 | – | – | – | – | – | – | – | – | – | –
COCCOCCOCCOCCOc1ccc2c(c1)C(=O)c1nc3ncccc3c(=O)n1-2 | 3.3 | 2.56 | 5.17 | 1.62 | 0.339 | 6.89 | 1.07 | 2.69 | 6.99 | 2.6 | 1.67 | 1.29 | 1.54 | 0.39 | 0.155 | 1.57 | 0.371 | 1.29 | 2.81 | 1.21
COc1ccc(-c2nc(N)nc(-c3cc(C)ccc3O)c2Cl)cc1 | > 100 | > 100 | > 100 | > 100 | > 100 | > 100 | > 100 | 86.4 | 94.2 | > 100 | – | – | – | – | – | – | – | – | – | –
CC(C)(C)c1ccc(C(O)(c2ccc(C(C)(C)C)cc2)c2ccc(C(C)(C)C)cc2)cc1 | > 100 | > 100 | > 100 | > 100 | > 100 | > 100 | > 100 | > 100 | > 100 | > 100 | – | – | – | – | – | – | – | – | – | –
O=C(O)C1C2CC3CC2CC31 (stereo not given) | > 100 | > 100 | > 100 | > 100 | > 100 | > 100 | > 100 | > 100 | > 100 | > 100 | – | – | – | – | – | – | – | – | – | –
Cc1cc(C#Cc2ccccc2)ccc1-n1c(/C=C/c2ccc(O)cc2)nc2ccccc2c1=O | 27.3 | > 100 | > 100 | 10.8 | 7.31 | > 100 | 21.7 | 32.8 | > 100 | 19.2 | 2.26 | 4.33 | 4.56 | 2.78 | 2.12 | 3.98 | 3.48 | 2.62 | 9.91 | 2.5
O=C(Nc1ccc(-c2nc3ccc(NC(=O)c4ccc(Cl)cc4)cc3[nH]2)cc1)c1ccc(Cl)cc1 | 9.36 | 3.21 | 18.5 | 11.4 | 11.4 | 6.93 | 16.4 | 5.8 | 24.2 | 27.4 | 2.95 | 0.412 | 5.78 | 1.94 | 3.79 | 1.73 | 4.21 | 2.39 | 11.8 | 10.6
CN(C)/C(=N/C(=O)Nc1ccccc1)SCc1ccccc1 | > 100 | > 100 | > 100 | > 100 | > 100 | > 100 | > 100 | > 100 | > 100 | > 100 | – | – | – | – | – | – | – | – | – | –
S=C1OC2C3C4CC5C3C(O1)C1C5C4C21 (stereo not given) | > 100 | > 100 | > 100 | > 100 | > 100 | > 100 | > 100 | > 100 | > 100 | > 100 | – | – | – | – | – | – | – | – | – | –
O=C(O)CCN1C(=O)/C(=C/C(Cl)=C/c2ccccc2)SC1=S | 5.66 | 3.16 | 20.2 | 3.04 | 5.23 | 22.2 | 3.42 | 9.59 | 20.1 | 6.82 | 2.07 | 1.66 | 3.15 | 1.5 | 2.22 | 3.27 | 1.52 | 4.19 | 7.54 | 1.77

— PubChem BioAssay (NCI)
